Measured values from patent US4735953A, “Pharmaceutical preparation for learning stimulation and memory improvement” (priority 1986, dated 1988).

Key:
[1] = tested on: rats persistently choosing the left side of the labyrinth; test: Lateralization of free behaviour in the T-shaped labyrinth; format: in vivo, rat; conditions: for Number of runs to the right, Series I / Number of runs to the right, Series II / Number of runs to the right, Series III: 20 animals
Protocol: Also studied was the change of lateralization of free behaviour of rats in the T-shaped labyrinth. In the experiment rats of both sexes with a mass of 180-230 g were used. Preliminary experiments were carried out on 120 animals, then a group of 40 animals was chosen which during 20 days selected the left corridor in the first attempt of running through the labyrinth.
The data on the capacity of the preparation according to the present invention to enhance the domination of one (left) brain hemisphere have been supported in behaviour experiments on rats where the change in lateralization of a free behaviour of rats in a T-shaped labyrinth was studied.

[2] = tested on: patients; test: Clinical study on patients with memory disorders, compared to pyracetam; format: in vivo, human
Source text: The preparation according to the present invention was studied in clinics on 130 patients.
As regards diagnosis and sex the patients were distributed as follows:
skull-brain traumata with memory disturbance: 75 patients (52 men and 23 women)
Alzheimer's disease: 15 patients (3 men and 12 women)
Pick's disease: 5 patients (5 men)
Senile dementia: 15 patients (4 men and 11 women)
Vascular dementia (cerabral atero-sclerosis, hypertonic disease): 20 patients (7 men and 13 women)
In the group of patients with skull-brain trauma the patient's age varied from 17 to 60 years, in the other patients--from 52 to 75 years.
In addition to clinico-psychopathological methods of investigation, all the patients were subjected to neuropsychological studies during which specific tasks were offered them to solve. In doing so, the response was assessed against a 4-points scale: 3--maximally pronounced disorder, full or substantially full incapability to deal with the task set; 2--a medium degree of manifestation of the deficiency, solving the task with the experimentator's assistance; 1--minor errors, independent correction of mistakes; 0--lack of disturbances.
The treatment course duration is 30-60 days. In the case of an acute skull-brain trauma (65 patients) the treatment started 15-20 days after the moment of trauma and lasted for 20-30 days.
It is known that the function of memory has a complex brain organization and different zones of brains take part in its regulation. During the studies a multi-faceted assessment of the memory function was carried out; there were assessed: (1) mnestic component of the environmental orientation of a patient; (2) involuntary memory for current events; (3) intentional exo-experimental memory; (4) volume and soundness of audio-speaking memory; (5) volume and soundness of visual memory; (6) operative memory; (7) memory for knowledge acquired before the disease.

[3] = tested on: rats; test: Teaching of rats in a T-shaped labyrinth with positive meal support; format: in vivo, rat
Source text: In the second series of experiments the preparation according to the present invention was studied for the effect on teaching of rats in a T-shaped labyrinth in one compartment of which a feedbox with meal was provided. Rats deprived of meals during the day were placed into the starting compartment of the labyrinth and taught to find the feed-box in the proper compartment of the labyrinth. The response time, the number of unrealized reactions, the latent period, and the number of errors were noted.
Similar results were obtained in experiments in a T-shaped labyrinth with the use of a positive meal support.

Cl.Nc1c2c(nc3c1CCC3)CCCC2.O [preparation of the invention, 9-amino-2,3,5,6,7,8-hexahydro-1H-cyclopenta(b)quinoline monohydrate hydrochloride]
choice of the right side of the labyrinth (in words) [1]: statistically markedly increased | Number of runs to the right, Series I ([1]; hypodermally 5 mg/kg): 10 | Number of runs to the right, Series II ([1]; hypodermally 5 mg/kg): 12 | Number of runs to the right, Series III ([1]; hypodermally 5 mg/kg): 14 | Number of runs to the right, Series I ([1]; hypodermally 10 mg/kg): 9 | Number of runs to the right, Series II ([1]; hypodermally 10 mg/kg): 14 | Number of runs to the right, Series III ([1]; hypodermally 10 mg/kg): 15 | therapeutic effect ([2]; Alzheimer's and Pick's diseases): An essential amelioration | recovery of psychic functions ([2]; acute skull-brain trauma): faster and more complete recovery of psychic functions | therapeutic effect, memory ([2]; consequences of a vascular injury of brains): an improvement of memory was noted along with a higher working capacity | effect on memory parameters ([2]; environmental orientation, past knowledge, involuntary, voluntary exo-experimental and operative memory): more complete and faster recovering effect | effect on the functional symmetry of the brain and activity of the dominating hemisphere ([2]; experimental and clinical studies): enhanced activity of the dominating hemisphere | character of recovery (in words) ([2]; patients): constructive and environmental praxis recovered most efficiently along with reading ability and memory | recovery of visual versus audio memory (in words) ([2]; patients): visual memory recovered faster than the audio memory | restoration of psychic functions as compared to pyracetam ([2]; patients, 5 to 30 mg a day subcutaneous, 30-60 days): faster and more complete restoration of psychic functions | number of response failures as compared to the initial level on the first day of teaching ([3]; rats, 5 mg/kg, by the fourth day of teaching, control 60-70%): 40% | number of response failures (in words) ([3]; rats, 1, 5 and 10 mg/kg): reduced number of response failures
